Measurements: paper PMC12844208, “Screening for Peptides to Bind and Functionally Inhibit SARS-CoV-2 Fusion Peptide Using Mirrored Combinatorial Phage Display and Human Proteomic Phage Display” (Molecules, 2026)

Each sequence was assayed on spike-FP12 peptide.
Format: binding, SARS-CoV-2

Going from DTLLPTQQAEVLHPVV to GPDRNFRLSEHRQALA, the “% Count” value rises from 2.70% to 6.59%.

First: GSSYAEMEVMKMIMTL
Second: HPNIKRVTPQRKVFRS
The “% Count” value of the first is higher: 0.06% for the first, 0.01% for the second.

Going from NFRLSEHRQALAAAKH to QLEHVKLFMQDLSAML, the “% Count” value rises from 0.00% to 9.07%.

Going from SFQYADIYEQMMLTGL to TLPFGDVEYVDLDAFL, the “% Count” value rises from 0.01% to 0.29%.

Going from DTLLPTQQAEVLHPVV to GPDRNFRLSEHRQALA, the “Count (read counts of phage display binding to FP)” value rises from 1392 to 3393.

Going from GSSYAEMEVMKMIMTL to HPNIKRVTPQRKVFRS, the “Count (read counts of phage display binding to FP)” value falls from 31 to 3.

Going from NFRLSEHRQALAAAKH to QLEHVKLFMQDLSAML, the “Count (read counts of phage display binding to FP)” value rises from 2 to 4673.

Going from SFQYADIYEQMMLTGL to TLPFGDVEYVDLDAFL, the “Count (read counts of phage display binding to FP)” value rises from 5 to 148.
